Measurements: PubChem BioAssay (NCI)
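Growth conditions: 96-well plates. Treatment: test compound, 48 hours, 5 concentrations. Analysis: linear interpolation between bracketing concentrations; unreached endpoints set to highest concentration. Abbreviation: GI50, concentration required for 50% inhibition of growth. At the TGI there is no net growth.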

Key:
Assay in all cases: DTP human tumour cell line panel, 48 h
786-0 renal = test system: 786-0 renal
A498 renal = test system: A498 renal
A549 NSCLC = test system: A549 NSCLC
ACHN renal = test system: ACHN renal
BT-549 breast = test system: BT-549 breast
CCRF-CEM leukemia = test system: CCRF-CEM leukemia
COLO 205 colon = test system: COLO 205 colon
EKVX NSCLC = test system: EKVX NSCLC
HCC-2998 colon = test system: HCC-2998 colon
HCT-116 colon = test system: HCT-116 colon
HCT-15 colon = test system: HCT-15 colon
HL-60(TB) leukemia = test system: HL-60(TB) leukemia
HOP-62 NSCLC = test system: HOP-62 NSCLC
HOP-92 NSCLC = test system: HOP-92 NSCLC
HS 578T breast = test system: HS 578T breast
HT29 colon = test system: HT29 colon
IGROV1 ovarian = test system: IGROV1 ovarian
K-562 leukemia = test system: K-562 leukemia
KM12 colon = test system: KM12 colon
LOX IMVI melanoma = test system: LOX IMVI melanoma
M14 melanoma = test system: M14 melanoma
MALME-3M melanoma = test system: MALME-3M melanoma
MCF7 breast = test system: MCF7 breast
MDA-MB-231 breast = test system: MDA-MB-231 breast
MDA-MB-435 = test system: MDA-MB-435
MOLT-4 leukemia = test system: MOLT-4 leukemia
NCI-H23 lung = test system: NCI-H23 lung
NCI-H460 lung = test system: NCI-H460 lung
NCI-H522 lung = test system: NCI-H522 lung
NCI/ADR-RES ovarian = test system: NCI/ADR-RES ovarian
OVCAR-3 ovarian = test system: OVCAR-3 ovarian
OVCAR-4 ovarian = test system: OVCAR-4 ovarian
OVCAR-5 ovarian = test system: OVCAR-5 ovarian
OVCAR-8 ovarian = test system: OVCAR-8 ovarian
PC-3 prostate = test system: PC-3 prostate
RPMI-8226 leukemia = test system: RPMI-8226 leukemia
RXF 393 renal = test system: RXF 393 renal
SF-268 CNS = test system: SF-268 CNS
SF-295 CNS = test system: SF-295 CNS
SF-539 CNS = test system: SF-539 CNS
SK-MEL-2 melanoma = test system: SK-MEL-2 melanoma
SK-MEL-28 melanoma = test system: SK-MEL-28 melanoma
SK-MEL-5 melanoma = test system: SK-MEL-5 melanoma
SK-OV-3 ovarian = test system: SK-OV-3 ovarian
SN12C renal = test system: SN12C renal
SNB-19 CNS = test system: SNB-19 CNS
SNB-75 CNS = test system: SNB-75 CNS
SR leukemia = test system: SR leukemia
SW-620 colon = test system: SW-620 colon
T-47D breast = test system: T-47D breast
TK-10 renal = test system: TK-10 renal
U251 CNS = test system: U251 CNS
UACC-257 melanoma = test system: UACC-257 melanoma
UACC-62 melanoma = test system: UACC-62 melanoma
UO-31 renal = test system: UO-31 renal

C[C@@H]1CCC/C=C/[C@H]2C[C@@H](O)C[C@@H]2[C@@H](O)/C=C/C(=O)O1
GI50 (786-0 renal): 95.1 nM
TGI (786-0 renal): > 33300 nM
GI50 (A498 renal): 59.5 nM
TGI (A498 renal): 166 nM
GI50 (A549 NSCLC): 127 nM
TGI (A549 NSCLC): > 33300 nM
GI50 (ACHN renal): 113 nM
TGI (ACHN renal): 5160 nM
GI50 (BT-549 breast): 140 nM
TGI (BT-549 breast): > 33300 nM
GI50 (CCRF-CEM leukemia): 130 nM
TGI (CCRF-CEM leukemia): > 33300 nM
GI50 (COLO 205 colon): 63 nM
TGI (COLO 205 colon): 131 nM
GI50 (EKVX NSCLC): 108 nM
TGI (EKVX NSCLC): > 33300 nM
GI50 (HCC-2998 colon): 139 nM
TGI (HCC-2998 colon): > 33300 nM
GI50 (HCT-116 colon): 99.5 nM
TGI (HCT-116 colon): > 33300 nM
GI50 (HCT-15 colon): 112 nM
TGI (HCT-15 colon): > 33300 nM
GI50 (HL-60(TB) leukemia): 97.3 nM
TGI (HL-60(TB) leukemia): 374 nM
GI50 (HOP-62 NSCLC): 145 nM
TGI (HOP-62 NSCLC): > 33300 nM
GI50 (HOP-92 NSCLC): 89.2 nM
TGI (HOP-92 NSCLC): 1280 nM
GI50 (HS 578T breast): 21.1 nM
TGI (HS 578T breast): > 33300 nM
GI50 (HT29 colon): 96.1 nM
TGI (HT29 colon): 316 nM
GI50 (IGROV1 ovarian): 145 nM
TGI (IGROV1 ovarian): > 33300 nM
GI50 (K-562 leukemia): 141 nM
TGI (K-562 leukemia): > 33300 nM
GI50 (KM12 colon): 84.5 nM
TGI (KM12 colon): 3420 nM
GI50 (LOX IMVI melanoma): 67.7 nM
TGI (LOX IMVI melanoma): 155 nM
GI50 (M14 melanoma): 93.2 nM
TGI (M14 melanoma): > 33300 nM
GI50 (MALME-3M melanoma): 86.8 nM
TGI (MALME-3M melanoma): 1170 nM
GI50 (MCF7 breast): 96.6 nM
TGI (MCF7 breast): > 33300 nM
GI50 (MDA-MB-231 breast): 69.7 nM
TGI (MDA-MB-231 breast): 171 nM
GI50 (MDA-MB-435): 136 nM
TGI (MDA-MB-435): > 33300 nM
GI50 (MOLT-4 leukemia): 146 nM
TGI (MOLT-4 leukemia): > 33300 nM
GI50 (NCI-H23 lung): 129 nM
TGI (NCI-H23 lung): > 33300 nM
GI50 (NCI-H460 lung): 115 nM
TGI (NCI-H460 lung): > 33300 nM
GI50 (NCI-H522 lung): 75.6 nM
TGI (NCI-H522 lung): 225 nM
GI50 (NCI/ADR-RES ovarian): 104 nM
TGI (NCI/ADR-RES ovarian): > 33300 nM
GI50 (OVCAR-3 ovarian): 111 nM
TGI (OVCAR-3 ovarian): 401 nM
GI50 (OVCAR-4 ovarian): 109 nM
TGI (OVCAR-4 ovarian): > 33300 nM
GI50 (OVCAR-5 ovarian): 136 nM
TGI (OVCAR-5 ovarian): > 33300 nM
GI50 (OVCAR-8 ovarian): 91.4 nM
TGI (OVCAR-8 ovarian): > 33300 nM
GI50 (PC-3 prostate): 125 nM
TGI (PC-3 prostate): > 33300 nM
GI50 (RPMI-8226 leukemia): 104 nM
TGI (RPMI-8226 leukemia): 553 nM
GI50 (RXF 393 renal): 49.8 nM
TGI (RXF 393 renal): 258 nM
GI50 (SF-268 CNS): 102 nM
TGI (SF-268 CNS): > 33300 nM
GI50 (SF-295 CNS): 140 nM
TGI (SF-295 CNS): > 33300 nM
GI50 (SF-539 CNS): 149 nM
TGI (SF-539 CNS): > 33300 nM
GI50 (SK-MEL-2 melanoma): 92 nM
TGI (SK-MEL-2 melanoma): 236 nM
GI50 (SK-MEL-28 melanoma): 40 nM
TGI (SK-MEL-28 melanoma): 12000 nM
GI50 (SK-MEL-5 melanoma): 54.7 nM
TGI (SK-MEL-5 melanoma): 109 nM
GI50 (SK-OV-3 ovarian): 144 nM
TGI (SK-OV-3 ovarian): > 33300 nM
GI50 (SN12C renal): 114 nM
TGI (SN12C renal): > 33300 nM
GI50 (SNB-19 CNS): 167 nM
TGI (SNB-19 CNS): > 33300 nM
GI50 (SNB-75 CNS): 23 nM
TGI (SNB-75 CNS): > 33300 nM
GI50 (SR leukemia): 111 nM
TGI (SR leukemia): > 33300 nM
GI50 (SW-620 colon): 101 nM
TGI (SW-620 colon): 327 nM
GI50 (T-47D breast): 109 nM
TGI (T-47D breast): 1360 nM
GI50 (TK-10 renal): 114 nM
TGI (TK-10 renal): 961 nM
GI50 (U251 CNS): 137 nM
TGI (U251 CNS): > 33300 nM
GI50 (UACC-257 melanoma): 110 nM
TGI (UACC-257 melanoma): > 33300 nM
GI50 (UACC-62 melanoma): 138 nM
TGI (UACC-62 melanoma): > 33300 nM
GI50 (UO-31 renal): 116 nM
TGI (UO-31 renal): > 33300 nM
